{
  "source": "PubChem BioAssay AID2060495",
  "about": "(Molecular Pharmacology Branch, DTP, NCI, 2025)",
  "system": "521955-158-R2-J5-PDC complex spheroid viability",
  "experiment": "Anticancer human tumor 521955-158-R2-J5-PDC patient-derived pancreatic carcinoma cell line growth inhibition [GQUAD]",
  "conditions": "for pIC50: curve of first compound; for viability, T/C: stronger effect = lower value",
  "description": "DNA G-quadruplex Stabilizer Agents in Combinations in Complex Spheroids\nA high-throughput screen of multi-cell type tumor spheroids was designed to identify active combinations of DNA G-quadruplex stabilizer agents and targeted small molecules. Complex spheroids include a stromal component modeled by human endothelial cells (HUVEC) and fibroblasts modeled by human mesenchymal stem cells (MSCs). The concentration ranges selected for each drug and investigational agent were based upon clinically achievable concentrations if the clinical Cmax of the agent was known.\nCompounds. The drugs and investigational agents: pidnarulex (CX-5461; NSC782164), APTO-253 (NSC789042), BRACO-19 (NSC847499), peposertib (NSC802822), ceralasertib (NSC780249), elimusertib (NSC800525), camonsertib (NSC841442), AZD-1390 (NSC803789), olaparib (NSC753686), talazoparib (NSC767125), ART-558 (NSC835418), sotorasib (NSC818433), MRTX-1133 (NSC836407), SN-38 (NSC673596), topotecan (NSC609699), etoposide (NSC141540), doxorubicin (NSC123127), gemcitabine (NSC613327), 5-fluorouracil (NSC19893), paclitaxel (NSC125973), vemurafenib (NSC761431), panobinostat (NSC761190), R-306465 (JNJ-16241199; NSC773264), adavosertib (NSC754352), TP-3654 (NSC805149), carboplatin (NSC241240), KSQ-4279 (NSC840948), and staurosporine (NSC755774) were obtained from the National Cancer Institute (NCI) Developmental Therapeutics Program Chemical Repository (34). The FDA-approved anticancer drug set is available from the NCI Developmental Therapeutics Program. […] The stock solutions were prepared in dimethyl sulfoxide (DMSO, Sigma-Aldrich, St. Louis, MO, cat. D2650) at 800-fold the tested concentration and stored at -70 degrees C prior to their use. All drugs and investigational agents were tested over a range starting from a high concentration at or near the clinical Cmax and decreasing in half-log increments. If the clinical Cmax for an agent had not been determined, the highest concentration tested was 10 microM.\n2.3 Cell Culture. All cells were maintained in an incubator at 37 degrees C and 5% CO2 with 95% humidity. The PDC lines were cultured according to standard operating procedures established by the NCI PDMR. All PDCs were thawed and cultured in Matrigel-coated flasks prepared with a working solution of 1X Ham's F-12 nutrient mix, without supplementation (Invitrogen, cat. 11765054), 100 U/mL penicillin-streptomycin (Invitrogen, cat. 15140122), and 2.5% Matrigel (Corning Inc., cat. 354248) for the first three passages. The 857933-349-R-J2-PDC line was cultured in 6C/Colon 1B media, which includes advanced DMEM/F-12 (Thermo Fisher Scientific, cat. 12634028), 10 mM HEPES (Thermo Fisher Scientific, cat. 15630080), 1X GlutaMAX supplement (Thermo Fisher Scientific, cat. 35050061), 0.1 mg/mL primocin (InvivoGen, cat. ant-pm-2), 10% defined fetal bovine serum, heat inactivated (HyClone Laboratories Inc., cat. SH30070.03HI), 50% L-WRN conditioned media (ATCC, cat. CRL-3276), 1.25 mM N-Acetyl-L-cysteine (Sigma-Aldrich, cat. A9165), 10 mM nicotinamide (Sigma-Aldrich, cat. N0636), 1X B-27 supplement (Thermo Fisher Scientific, cat. 17504044), 1X N-2 supplement (Thermo Fisher Scientific, cat. 17502048), 10 microM Y-27632 dihydrochloride (Tocris Bioscience, cat. 1254), and 50 ng/mL human EGF recombinant protein (Thermo Fisher Scientific, cat. PHG0311). The 485176-168-R4-J1-PDC line was cultured in Panc media, which includes all 6C/Colon 1B media components plus 100 ng/mL human FGF-10 (Thermo Fisher Scientific, cat. 100-26), 500 nM SB-431542 (Selleckchem, cat. S1067), and gastrin (Tocris, cat. 3006).\n[…]",
  "note": "pIC50: −log10 of the molar value.",
  "data": [
    {"compound": "O=C(NO)c1cnc(N2CCN(S(=O)(=O)c3ccc4ccccc4c3)CC2)nc1", "note": "+ Cc1cnc(CNC(=O)c2c(=O)c3ccc(N4CCCN(C)CC4)nc3n3c2sc2ccccc23)cn1;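 further: spheroids exposed to agents for one week before reading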;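 on viability, T/C: 100% = DMSO vehicle control viability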", "values": [
      {"measurement": "pIC50", "setting": "second compound 0.0316 µM", "result": 6.63},
      {"measurement": "pIC50", "setting": "second compound 0.1 µM", "result": 6.78},
      {"measurement": "pIC50", "setting": "second compound 0.316 µM", "result": "> 7.50"},
      {"measurement": "pIC50", "setting": "second compound 1 µM", "result": "> 7.50"},
      {"measurement": "pIC50", "setting": "second compound 3.16 µM", "result": "> 7.50"},
      {"measurement": "pIC50", "setting": "second compound 10 µM", "result": "> 7.50"},
      {"measurement": "viability, T/C", "setting": "second compound 0.0316 µM, first compound 0.0316 µM", "result": 106, "unit": "%"},
      {"measurement": "viability, T/C", "setting": "second compound 0.0316 µM, first compound 0.1 µM", "result": 78.9, "unit": "%"},
      {"measurement": "viability, T/C", "setting": "second compound 0.0316 µM, first compound 0.316 µM", "result": 42.1, "unit": "%"},
      {"measurement": "viability, T/C", "setting": "second compound 0.0316 µM, first compound 1 µM", "result": 5.64, "unit": "%"},
      {"measurement": "viability, T/C", "setting": "second compound 0.0316 µM, first compound 3.16 µM", "result": 0.04, "unit": "%"},
      {"measurement": "viability, T/C", "setting": "second compound 0.0316 µM, first compound 10 µM", "result": 0.1, "unit": "%"},
      {"measurement": "viability, T/C", "setting": "second compound 0.1 µM, first compound 0.0316 µM", "result": 53.6, "unit": "%"},
      {"measurement": "viability, T/C", "setting": "second compound 0.1 µM, first compound 0.1 µM", "result": 51.4, "unit": "%"},
      {"measurement": "viability, T/C", "setting": "second compound 0.1 µM, first compound 0.316 µM", "result": 47, "unit": "%"},
      {"measurement": "viability, T/C", "setting": "second compound 0.1 µM, first compound 1 µM", "result": 6.79, "unit": "%"},
      {"measurement": "viability, T/C", "setting": "second compound 0.1 µM, first compound 3.16 µM", "result": 0.05, "unit": "%"},
      {"measurement": "viability, T/C", "setting": "second compound 0.1 µM, first compound 10 µM", "result": 0.08, "unit": "%"},
      {"measurement": "viability, T/C", "setting": "second compound 0.316 µM, first compound 0.0316 µM", "result": 27.5, "unit": "%"},
      {"measurement": "viability, T/C", "setting": "second compound 0.316 µM, first compound 0.1 µM", "result": 36.1, "unit": "%"},
      {"measurement": "viability, T/C", "setting": "second compound 0.316 µM, first compound 0.316 µM", "result": 29.8, "unit": "%"},
      {"measurement": "viability, T/C", "setting": "second compound 0.316 µM, first compound 1 µM", "result": 1.02, "unit": "%"},
      {"measurement": "viability, T/C", "setting": "second compound 0.316 µM, first compound 3.16 µM", "result": 0.05, "unit": "%"},
      {"measurement": "viability, T/C", "setting": "second compound 0.316 µM, first compound 10 µM", "result": 0.07, "unit": "%"},
      {"measurement": "viability, T/C", "setting": "second compound 1 µM, first compound 0.0316 µM", "result": 20.1, "unit": "%"},
      {"measurement": "viability, T/C", "setting": "second compound 1 µM, first compound 0.1 µM", "result": 22.9, "unit": "%"},
      {"measurement": "viability, T/C", "setting": "second compound 1 µM, first compound 0.316 µM", "result": 12.9, "unit": "%"},
      {"measurement": "viability, T/C", "setting": "second compound 1 µM, first compound 1 µM", "result": 0.1, "unit": "%"},
      {"measurement": "viability, T/C", "setting": "second compound 1 µM, first compound 3.16 µM", "result": 0.04, "unit": "%"},
      {"measurement": "viability, T/C", "setting": "second compound 1 µM, first compound 10 µM", "result": 0.08, "unit": "%"},
      {"measurement": "viability, T/C", "setting": "second compound 3.16 µM, first compound 0.0316 µM", "result": 11.7, "unit": "%"},
      {"measurement": "viability, T/C", "setting": "second compound 3.16 µM, first compound 0.1 µM", "result": 17.4, "unit": "%"},
      {"measurement": "viability, T/C", "setting": "second compound 3.16 µM, first compound 0.316 µM", "result": 4.19, "unit": "%"},
      {"measurement": "viability, T/C", "setting": "second compound 3.16 µM, first compound 1 µM", "result": 0.1, "unit": "%"},
      {"measurement": "viability, T/C", "setting": "second compound 3.16 µM, first compound 3.16 µM", "result": 0.07, "unit": "%"},
      {"measurement": "viability, T/C", "setting": "second compound 3.16 µM, first compound 10 µM", "result": 0.11, "unit": "%"},
      {"measurement": "viability, T/C", "setting": "second compound 10 µM, first compound 0.0316 µM", "result": 11.8, "unit": "%"},
      {"measurement": "viability, T/C", "setting": "second compound 10 µM, first compound 0.1 µM", "result": 8.03, "unit": "%"},
      {"measurement": "viability, T/C", "setting": "second compound 10 µM, first compound 0.316 µM", "result": 2.82, "unit": "%"},
      {"measurement": "viability, T/C", "setting": "second compound 10 µM, first compound 1 µM", "result": 0.14, "unit": "%"},
      {"measurement": "viability, T/C", "setting": "second compound 10 µM, first compound 3.16 µM", "result": 0.15, "unit": "%"},
      {"measurement": "viability, T/C", "setting": "second compound 10 µM, first compound 10 µM", "result": 0.18, "unit": "%"}
    ]}
  ]
}
